SMILES strings stand for the structures.

The test system of one assay is Hsp90 protein. The assay is described as follows: Malachite Green assay of ATPase activity of Hsp90 protein. The note with it: 37° C., 4 hours. The format is biochemical. How it is done:
Hsp90 protein was obtained from Stressgen (Cat#SPP-770). Assay buffer: 100 mM Tris-HCl, Ph7.4, 20 mM KCl, 6 mM MgCl2. […] Malachite green reagent was added to the reaction. […] The plate was read by an ELISA reader with an absorbance at 620 nm.

A further assay deals with Her2. The assay can be described thus: Degradation of Her2 in BT-474 cells (Western blot). The assay is classed as cell-based, Human. Particulars: overnight. How it is done: Human high-Her2 breast carcinoma BT474 (HTB-20), SK-BR-3 (HTB-30) and MCF-7 breast carcinoma (HTB-22) from American Type Culture Collection, VA, USA were grown in Dulbecco's modified Eagle's medium with 4 mM L-glutamine and antibiotics (100 IU/ml penicillin and 100 ug/ml streptomycine; GibcoBRL). To obtain exponential cell growth, cells were trypsinized, counted and seeded at a cell density of 0.5×10^6 cells/ml regularly, every 3 days. All experiments were performed on day 1 after cell passage.
After treatment, each cytoplasmic sample was prepared from 1×10^6 cells by incubation of cell lysis buffer (#9803, cell Signaling Technology) on ice for 10 minutes. The resulting supernatant used as the cytosol fractions were dissolved with sample buffer for SDS-PAGE and run on a SDS-PAGE gel, blotted onto a nitrocellulose membrane by using semi-dry transfer. Non-specific binding to nitrocellulose was blocked with 5% skim milk in TBS with 0.5% Tween at room temperature for 1 hour, then probed with anti-Her2/ErB2 mAb (rabbit IgG, #2242, Cell Signaling) and anti-Tubulin (T9026, Sigma) as housekeeping control protein. HRP-conjugated goat antirabbit IgG (H+L) and HRP-conjugated horse antimouse IgG (H+L) were used as secondary Ab (#7074, #7076, Cell Signaling) and LumiGLO reagent, 20× Peroxide (#7003, Cell Signaling) was used for visualization.
(In general: A western blot detects proteins with antibodies after separation by electrophoresis.)

Consider `Oc1ccc(-c2nnc(S)n2-c2cccc3ccccc23)c(O)c1` [Compound 108, 3-(2,4-Dihydroxy-phenyl)-4-(naphthalen-1-yl)-5-mercapto-[1,2,4]triazole], for which the “ATPase activity of Hsp90” value in the assay with Hsp90 protein (4 μM) is recorded as “significant inhibition”; in the assay with Hsp90 protein (40 μM), “even greater inhibition of ATPase activity of Hsp90 than geldanamycin”. In addition, the Her2 degradation result was “partially degradated” with Her2 (0.5 μM), “partially degradated” with Her2 (2 μM) and “almost completely degraded” in the assay with Her2 (5 μM).

Values taken from US20140363830A1, “COMPOUNDS THAT MODULATE HSP90 ACTIVITY AND METHODS FOR IDENTIFYING SAME” (SYNTA PHARMACEUTICALS CORP., priority 2006, published 2014).
